Assay results: patent US20260294915A1, “COMBINATION THERAPY COMPRISING A MAT2A INHIBITOR AND A TOPOISOMERASE INHIBITOR, A SPLICING INHIBITOR SULFONAMIDE, OR A KIF18 INHIBITOR” (IDEAYA BIOSCIENCES, INC., priority 2023, published 2026)
Structures can show the parent of a compound that is named as a salt.

What was measured:
[1] = tested on: LMSU (RCB1062) human gastric tumor cell-derived xenograft (CDX) models; test: Anti-tumor activity in LMSU gastric mouse xenograft (CDX) model (Example 9); assay type: in vivo; details: 3 days on/4 days holiday; for Day 11 TV (mean): initial TV 185, vehicle 1018
Procedure: (§1) All mouse studies were approved by the Institutional Animal Care and Use Committee (IACUC) based on guidelines from the National Institutes of Health (NIH). Mice were maintained under pathogen-free conditions, and food and water were provided ad libitum.
(§2) The anti-tumor effect of Compound A and irinotecan hydrochloride as single-agents or in combination was assessed in the LMSU (RCB1062) human gastric tumor cell-derived xenograft (CDX) models. LMSU was expanded in HamF10 with 10% fetal bovine serum. Cells were free of mycoplasma and authenticated by STR profiling, and ten million cells in log growth phase were resuspended in Hanks Balanced Salt Solution containing 50% Matrigel and implanted subcutaneously into the flank of each recipient female Crl:NU-Foxn1nu mouse. Mice were housed in microisolator cages with corn cob bedding with additional enrichment consisting of sterile nesting material (Innovive) and Bio-huts (Bio-Serv). Water (Innovive) and diet (Teklad Global 19% Protein Extruded Diet 2919, Irradiated) were provided ad libitum. The environment was maintained on a 12-hour light cycle at approximately 68-72° F. and 40-60% relative humidity.
(§3) Tumor Volume (TV) was calculated using the following formula: TV (mm^3)=(width×width×length)/2. Tumor growth inhibition (TGI) was calculated by [(TV controlfinal−TV treatedfinal)/(TV controlfinal−TV controlinitial)×100]. TV was analyzed for statistical significance utilizing GraphPad Prism version 10.2.2. Repeated Measures 2-Way ANOVA with Dunnet's Multiple Comparisons was utilized, and P-values were derived from data collected on the date of Vehicle group termination and were considered statistically significant if less than 0.05.
Mean tumor volume at dosing start was approximately 185 mm^3, with seven mice randomized to each treatment group. Mice were dosed orally, once per day, with Vehicle, Compound A at 10 mg/kg, or dosed for 3 consecutive days followed by 4 days holiday by intraperitoneal (IP) injection of Compound B at 5 mg/kg or 10 mg/kg, or combination of Compound A and Compound B. The vehicle group was a combination of Vehicle A (for Compound A, 0.5% 400 cps methylcellulose with 0.5% Tween-80 in sterile water) and Vehicle B (for irinotecan hydrochloride, Saline).

[2] = tested on: RT112/84 human bladder tumor cell-derived xenograft (CDX) model; test: Anti-tumor activity in RT112/84 mouse xenograft (CDX) model (Example 7); assay type: in vivo
Procedure: as §1
The anti-tumor effect of Compound A and irinotecan hydrochloride as single-agents or in combination was assessed in the RT112/84 human bladder tumor cell-derived xenograft (CDX) model. Cells were expanded in RPMI-1640 (Gibco, Catalog Number 11875093) with 10% fetal bovine serum. These cells were free of mycoplasma and authenticated by STR profiling. Five million cells in log growth phase were resuspended in Hanks Balanced Salt Solution containing 50% Matrigel and implanted subcutaneously into the flank of each recipient female Crl:NU-Foxnlnu mouse. Mice were housed in microisolator cages with corn cob bedding with additional enrichment consisting of sterile nesting material (Innovive) and Bio-huts (Bio-Serv). Water (Innovive) and diet (Teklad Global 19% Protein Extruded Diet 2919, Irradiated) were provided ad libitum. The environment was maintained on a 12-hour light cycle at approximately 68-72° F. and 40-60% relative humidity.
as §3, with “10.0.3.” for “10.2.2.”, “Tukey's” for “Dunnet's”, “Day 14 (date” for “the date”, “termination)” for “termination”, “0.05. Tumor regression was calculated by using the percent change in tumor volume from the final tumor volume measurement from Day 73 when compared to the initial tumor volume from Day 1. Tumor regression was defined as reduced TV on Day 73 compared to Day 1. Tumor regression rate was defined as the percentage of animals per group with tumor regression.” for “0.05.”
Mean tumor volume at dosing start was approximately 249 mm^3, with ten mice randomized to each treatment group. Mice were dosed orally, once per day, with Vehicle, Compound A at 10 mg/kg, or dosed for 3 consecutive days followed by 4 days holiday by intraperitoneal (IP) injection of Compound B at 5 mg/kg, or combination of Compound A and Compound B. The vehicle group was a combination of Vehicle A (for Compound A, 0.5% 400 cps methylcellulose with 0.5% Tween-80 in sterile water) and Vehicle B (for irinotecan hydrochloride, Saline).

[3] = tested on: MKN45 (RCB1001) human gastric tumor cell-derived xenograft (CDX) model; test: Anti-tumor activity in MKN45 gastric mouse xenograft (CDX) model (Example 8); assay type: in vivo; details: 3 days on/4 days holiday
Procedure: as §1
as §2, with “MKN45 (RCB1001)” for “LMSU (RCB1062)”, “model. MKN45” for “models. LMSU”, “RPMI1640” for “HamF10”
as §3
Mean tumor volume at dosing start was approximately 190 mm^3, with six mice randomized to each treatment group. Mice were dosed orally, once per day, with Vehicle, Compound A at 10 mg/kg, or dosed for 3 consecutive days followed by 4 days holiday by intraperitoneal (IP) injection of Compound B at 5 mg/kg or 10 mg/kg, or combination of Compound A and Compound B. The vehicle group was a combination of Vehicle A (for Compound A, 0.5% 400 cps methylcellulose with 0.5% Tween-80 in sterile water) and Vehicle B (for irinotecan hydrochloride, Saline).

[4] = tested on: RT112/84; test: 10-day proliferation (CTG), equimolar Compound A + SPLAM (Example 4); assay type: cell-based; details: single agent or 1:1 combo
Procedure: (§4) A 10-day proliferation assay was performed in a panel of 5 MTAP-deficient and 2 wild type non-small cell lung and bladder cancer cell lines. Optimal cell seeding for all cell lines was determined by assessing the growth over a range of seeding densities in a 384-well format to identify conditions that permitted proliferation for 10 days. Cells were then plated at the optimal seeding density and treated with 20-point, two-fold dilution series of Compound A, the splicing inhibitor sulfonamide (SPLAM), or an equimolar combination of Compound A and the SPLAM. Combinations tested included Compound A in combination with four structurally different SPLAMs. Concentrations tested for Compound A and each SPLAM alone or in combination ranged from 0.04 nM to 20,000 nM. A plate of cells was harvested at the time of compound addition to quantify the number of cells at the start of the combination (T0). For cell quantification, the harvested cells were lysed with Promega CellTiter-Glo (CTG) reagent according to the manufacturer's protocol and the chemiluminescent signal was detected on a Synergy Neo plate reader. CTG estimates cell number through detection of cellular ATP levels. Cells were incubated with the drug combinations at 37° C. with 5% CO2 for 10 days. Cells were then lysed with CTG and the chemiluminescent signal was measured.
(§5) CTG values obtained after the 10-day treatment were background subtracted and expressed as a percent of the T0 value. Data were plotted against compound concentration and fit with a four-parameter equation to generate dose response curves for each single agent and the equimolar combination. Growth ICx (gICx) values ranging from gIC30 to gIC100 were interpolated from the fitted curves. Synergistic growth inhibition was assessed by determination of Combination Index (CI) values at these various points across the titration using the mutually non-exclusive equation [Chou, 1983; Chou, 1981] shown below where A equals the gICx value of Compound A, B equals the gICx value of the SPLAM, and A+B or B+A equals the gICx value of the equimolar combination. A Combination Index value less than 1.0 was considered synergistic.

[5] = tested on: UMUC11; test: as above; assay type: cell-based; details: single agent or 1:1 combo
Procedure: as §4, §5

[6] = tested on: TCCSUP; test: as above; assay type: cell-based; details: single agent or 1:1 combo
Procedure: as §4, §5

[7] = tested on: NCI-H520; test: as above; assay type: cell-based; details: single agent or 1:1 combo
Procedure: as §4, §5

[8] = tested on: NCI-H838; test: as above; assay type: cell-based; details: single agent or 1:1 combo
Procedure: as §4, §5

[9] = tested on: UMUC5; test: as above; assay type: cell-based; details: single agent or 1:1 combo
Procedure: as §4, §5

[10] = tested on: SW900; test: as above; assay type: cell-based; details: single agent or 1:1 combo
Procedure: as §4, §5

[11] = irinotecan hydrochloride 5 mg/kg IP
[12] = irinotecan hydrochloride 10 mg/kg IP
[13] = irinotecan hydrochloride 5 mg/kg IP, 3 days on/4 days holiday

## CCc1c2c(nc3ccc(OC(=O)N4CCC(N5CCCCC5)CC4)cc13)-c1cc3c(c(=O)n1C2)COC(=O)[C@]3(O)CC [irinotecan hydrochloride]
[1]; [11]
  Day 11 TGI: 42%
  Tumor Regression Rate on Day 11: 0%
  Day 11 TV (mean): 671 mm^3
[1]; [12]
  Day 11 TGI: 80%
  Tumor Regression Rate on Day 11: 14%
  Day 11 TV (mean): 353 mm^3
[2]; Compound A 10 mg/kg oral once per day, irinotecan 5 mg/kg IP 3 days on/4 days off
  TGI: 83%
[2]; day 73, Compound A 10 mg/kg oral, irinotecan 5 mg/kg IP
  response rate (mice with tumor regressions): 30%
[2]; [13]
  Day 14 TGI: 83%
  Tumor Regression Rate on Day 73: 30%
[2]; irinotecan hydrochloride 5 mg/kg IP, 3 days on/4 days holiday, initial TV 249, vehicle 1069
  Day 14 TV (mean): 387 mm^3
[3]; [11]
  Day 25 TGI: 49%
  Tumor Regression Rate on Day 25: 0%
[3]; irinotecan hydrochloride 5 mg/kg IP, initial TV 190, vehicle 1396
  Day 25 TV (mean): 807 mm^3
[3]; [12]
  Day 25 TGI: 85%
  Tumor Regression Rate on Day 25: 17%
[3]; irinotecan hydrochloride 10 mg/kg IP, initial TV 192, vehicle 1396
  Day 25 TV (mean): 369 mm^3

## O=C(NS(=O)(=O)c1ccc(Br)s1)c1ccc(Cl)cc1Cl [Tasisulam, N-((5-bromothiophen-2-yl)sulfonyl)-2,4-dichlorobenzamide]
[4]; Homo sapiens, RT112/84, read-out: gIC50
  IC50: 20 µM
[4]
  gIC30: 20 µM
  gIC40: 20 µM
  gIC60: 20 µM
  gIC70: 20 µM
  gIC100: 20 µM
[4]; 14400 min, read-out: gIC80
  IC80: 20 µM
[4]; 14400 min, read-out: gIC90
  IC90: 20 µM
[5]
  gIC30: 17.77 µM
  gIC40: 18.358 µM
  gIC60: 19.349 µM
  gIC70: 19.781 µM
  gIC100: 20 µM
[5]; 14400 min, read-out: gIC80
  IC80: 20 µM
[5]; 14400 min, read-out: gIC90
  IC90: 20 µM
[5]; read-out: gIC50
  IC50: 18.9 µM
[6]; Homo sapiens, TCC-SUP, read-out: gIC50
  IC50: 20 µM
[6]
  gIC30: 20 µM
  gIC40: 20 µM
  gIC60: 20 µM
  gIC70: 20 µM
  gIC100: 20 µM
[6]; 14400 min, read-out: gIC80
  IC80: 20 µM
[6]; 14400 min, read-out: gIC90
  IC90: 20 µM
[7]; Homo sapiens, NCI-H520, read-out: gIC50
  IC50: 11.2 µM
[7]
  gIC30: 9.551 µM
  gIC40: 10.354 µM
  gIC60: 12.274 µM
  gIC70: 13.716 µM
  gIC100: 20 µM
[7]; 14400 min, read-out: gIC80
  IC80: 16.4 µM
[7]; 14400 min, read-out: gIC90
  IC90: 12 µM
[8]; Homo sapiens, NCI-H838, read-out: gIC50
  IC50: 4.93 µM
[8]
  gIC30: 7.419 µM
  gIC40: 4.551 µM
  gIC60: 5.372 µM
  gIC70: 5.923 µM
  gIC100: 20 µM
[8]; 14400 min, read-out: gIC80
  IC80: 6.69 µM
[8]; 14400 min, read-out: gIC90
  IC90: 7.97 µM
[9]
  gIC30: 16.121 µM
  gIC40: 16.834 µM
  gIC60: 18.053 µM
  gIC70: 18.592 µM
  gIC100: 20 µM
[9]; 14400 min, read-out: gIC80
  IC80: 19.1 µM
[9]; 14400 min, read-out: gIC90
  IC90: 19.6 µM
[9]; read-out: gIC50
  IC50: 17.5 µM
[10]; Homo sapiens, SW900, read-out: gIC50
  IC50: 20 µM
[10]
  gIC30: 20 µM
  gIC40: 20 µM
  gIC60: 20 µM
  gIC70: 20 µM
  gIC100: 20 µM
[10]; 14400 min, read-out: gIC80
  IC80: 20 µM
[10]; 14400 min, read-out: gIC90
  IC90: 20 µM
